Measurements: paper PMC8458285, “The Acinetobacter baumannii disinfectant resistance protein, AmvA, is a spermidine and spermine efflux pump” (Communications Biology, 2021)

What was measured:
[1] = biological target: T1, AmvR (Acinetobacter baumannii, UniProt A0A0D5YGI2); assay: nanoDSF isothermal analysis (Kd at […] °C); weak, DSF shift only +[…] °C; type: binding
T1 construct: gene ABUW_1678; AmvR (amvR amplified from A. baumannii ATCC17978 genomic DNA) carrying a C-terminal hexahistidine tag; dimer in solution

[2] = biological target: T1, AmvR; assay: nanoDSF isothermal analysis (Kd at […] °C); DSF shift +[…] °C; type: binding
[3] = biological target: AmvR (Acinetobacter baumannii ATCC17978); assay: SEC; analytical SEC on Superdex 200 10/300 GL; elution volume compared with MW standards (HMW and LMW calibration sets)

Molecule	Kd [2]	other results
NCCCCN [putrescine]		Kd [1]: 260 µM
NCCCCNCCCN [spermidine]	9.5 µM	
NCCCNCCCCNCCCN [spermine]	5.4 µM	
AmvR (natural protein)		stoichiometry N [3]: 2
